These results are taken from patent US10301294B2, “Compounds for the treatment of tuberculosis” (priority 2013, dated 2019).

Common to all, as to type: cell-based
Data set [1] can be described thus: Cytotoxicity against HeLa. The note with it: human, HeLa cells, 26.0 uM highest concentration measured.
For data set [2], the system named is replicating M. tuberculosis H37Rv. The data set can be described thus: microbe, parasite or virus in culture. To be noted: Mycobacterium tuberculosis, H37RV, three independent experiments in triplicate, read-out: TB Growth Inhibition Activity, IC90 Replicating_logarithmic (converted).
A short description of data set [3]: Cytotoxicity against HepG2. The note with it: human, HepG2 cells, 26.0 uM highest concentration measured.
Data set [4] concerns carbon-starved M. tuberculosis H37Rv. The data set can be described thus: Non-replicating IC90 determination by luciferase (carbon-starved cells). The note with it: Mycobacterium tuberculosis, H37RV; non-replicating carbon-starved Mtb, luciferase; three independent experiments in triplicate; read-out: TB Growth Inhibition Activity, IC90 Non-replicating_luciferase.
Data set [5] in a line: Cytotoxicity against Hek 293. The note with it: human, HEK293 cells, 26.0 uM highest concentration measured.

On to `c1ccc(CSc2nnc(-c3ccccc3)o2)cc1`, for which the IC50 in data set [1], in data set [3] and in data set [5] was above 26 µM throughout. The IC90 in data set [2] was 62 µM; in data set [4] it was 8 µM.
Regarding `c1ccc(CSc2nnc(-c3ccccc3)s2)cc1`, the IC50 in data set [1], in data set [3] and in data set [5] was above 26 µM throughout. Besides, the figures for the concentration for an effect of 90% (IC90) in data set [2] and in data set [4] were 62 µM and 8 µM, respectively.
As for `Clc1ccccc1-c1nnc(SCc2ccccc2)o1`, the concentration for half-maximal inhibition (IC50) in data set [1], in data set [3] and in data set [5] was above 26 µM throughout. The IC90 in data set [2] is 250 µM; in data set [4], 32 µM.
Take `FC(F)(F)c1ccccc1-c1nnc(SCc2ccccc2)o1`: the IC50 in data set [1], in data set [3] and in data set [5] was above 26 µM each time. For the same compound, the 90% effect concentration (IC90) in data set [2] was 500 µM; in data set [4], 62 µM.
`CS(=O)(=O)c1ccccc1-c1nnc(SCc2ccccc2)o1`: the half-maximal inhibitory concentration (IC50) in data set [1], in data set [3] and in data set [5] was above 26 µM each time. Also, the 90% effect concentration (IC90) in data set [2] is 500 µM; in data set [4], 62 µM.
Take `COc1cccc(-c2nnc(SCc3ccccc3)o2)c1`: the IC50 in data set [1], in data set [3] and in data set [5] was above 26 µM in each case. Also, the 90% effect concentration (IC90) in data set [2] was 250 µM; in data set [4], 8 µM.
As to `Fc1cccc(-c2nnc(SCc3ccccc3)o2)c1`, the IC50 in data set [1], in data set [3] and in data set [5] was above 26 µM each time. In addition, the figures for the IC90 in data set [2] and in data set [4] were 125 µM and 1 µM, respectively.
Turning to `FC(F)(F)Oc1cccc(-c2nnc(SCc3ccccc3)o2)c1`, the half-maximal inhibitory concentration (IC50) in data set [1], in data set [3] and in data set [5] was above 26 µM throughout. Moreover, the 90% effect concentration (IC90) in data set [2] is 250 µM; in data set [4] it was 31 µM.
`Cc1ccc(-c2nnc(SCc3ccccc3)o2)cc1`: the IC50 in data set [1], in data set [3] and in data set [5] was above 26 µM in each case. Also, the values for the 90% effect concentration (IC90) in data set [2] and in data set [4] were 125 µM and 4 µM, respectively.
For `Fc1ccc(-c2nnc(SCc3ccccc3)o2)cc1`, the IC50 in data set [1], in data set [3] and in data set [5] was above 26 µM in each case. Besides, the 90% effect concentration (IC90) in data set [2] is 125 µM; in data set [4], 2 µM.
With `Clc1ccc(-c2nnc(SCc3ccccc3)o2)cc1`, the IC50 in data set [1], in data set [3] and in data set [5] was above 26 µM each time. For the same compound, the IC90 was 500 µM in data set [2] and 4 µM in data set [4].
Consider `c1ccc(CSc2nnc(-c3ccccn3)o2)cc1`, for which the IC50 in data set [1], in data set [3] and in data set [5] was above 26 µM throughout. In addition, the concentration for an effect of 90% (IC90) in data set [2] is 125 µM; in data set [4], 4 µM.
For the compound `c1ccc(CSc2nnc(-c3cccnc3)o2)cc1`, the IC50 in data set [1], in data set [3] and in data set [5] was above 26 µM each time. The IC90 in data set [2] was 125 µM; in data set [4], 2 µM.
In the case of `c1ccc(CSc2nnc(-c3cscn3)o2)cc1`, the concentration for half-maximal inhibition (IC50) in data set [1], in data set [3] and in data set [5] was above 26 µM each time. Moreover, the IC90 in data set [2] was 125 µM; in data set [4], 4 µM.
On to `Cc1ccccc1CSc1nnc(-c2ccccc2)o1`, for which the 50% inhibitory concentration (IC50) in data set [1], in data set [3] and in data set [5] was above 26 µM throughout. Besides, the IC90 was 250 µM in data set [2] and 8 µM in data set [4].
On to `O=S(=O)(Cc1ccccc1)c1nnc(-c2ccccc2)o1` [drawing 80], for which the IC50 in data set [1], in data set [3] and in data set [5] was above 26 µM each time. Further, the values for the IC90 in data set [2] and in data set [4] were 125 µM and 8 µM, respectively.
As for `c1ccc(-c2nnc(SCc3ccccn3)o2)cc1` [drawing 142], the IC50 in data set [1], in data set [3] and in data set [5] was above 26 µM each time. In addition, the IC90 in data set [2] was 100 µM; in data set [4], 3 µM.

One may read the IC50 as the point on the concentration scale where inhibition reaches its midpoint. The low end stands for higher potency, the high end for lower potency. A word on the IC90: it is the point of the concentration-response curve where the effect stands at 90%.
